Marks after values point to notes of the source that are not given here.
Test system: mouse organs
Assay: In vivo activity screening in mice: organ mean total flux (p/s) of luciferase activity after injection of F2 LNP pools (Table 6, FIG. 7A-7C)
Settings: luciferase mRNA
Description: Small rodent biodistribution studies were performed in mice (e.g., C57BL/6J, Balb-c, CD-1, etc.). For evaluating LNP biodistribution and tissue activity upon systemic administration, C57BL/6J mice received dose administration by single intravenous injection via tail vein with LNP formulations (individual or pooled) in PBS, at different dose (0.25-3 mg/kg) levels of firefly luciferase mRNA. At predetermined time points (4-6 hours post-injection), the animals were anesthetized via isoflurane and subjected to in-life imaging sessions for bioluminescence using an In Vivo Imaging System (IVIS). All animals were dosed with D-Luciferin at 15 mg/mL via subcutaneous (SC) injection at 0.2 mL/animal. Animals had their abdomen hair shaved using an animal trimmer. They were then placed so their shaved belly faced up toward the IVIS camera. Whole body imaging sessions were performed 10-15 minutes following D-Luciferin administration.
For in detail organ distribution and activity of LNP formulations, ex vivo imaging sessions were also performed. All animals received SC D-Luciferin and were then euthanized by isoflurane overdose, followed by cardiac perfusion with saline. Following perfusion, the organs were collected and subjected to IVIS imaging for luminescence within 10-15 minutes of D-Luciferin injection.
All IVIS images were processed with a computer software to identify the regions of interests for individual organs to detect the total flux (p/s) values as luminescence quantification. Then the total flux values were graphed to evaluate the in vivo activity in each collected organ.
Small rodent biodistribution studies were performed in mice according to the General Study Protocols in Example 3(a). LNPs incorporating lipid compounds were prepared in Formulation F2, with MC3 as lipid compound (Cayman Chemical) prepared using Formulation F2 for comparison. LNP pools (with firefly luciferase mRNA encapsulated) were injected into mice at varying doses, and organ mean total flux (p/s) results (measuring luciferase activity) were then collected according to Example 3(a).
LNPs comprising MC3 used as a control and for cross-mouse comparison. Dose is in mg/kg; LC is Lipid Compound according to Table 1.
Additional screening results for Compounds 7, 13, 14, 26, 33, 38, 39, 40, 48, 60, 61, 89, 103, and 109 in spleen, femur, and muscle are shown in FIG. 7A, FIG. 7B, and FIG. 7C, with MC3 as a used as a control for comparison.

CCCCC/C=C\CCOC(=O)CCCCC(=O)OCC(COC(=O)CCCCC(=O)OCC/C=C\CCCCC)(COC(=O)CCCCC(=O)OCC/C=C\CCCCC)COC(=O)CCC(CCCCCC)OC(=O)NCCN1CCCC1 (stereo not drawn) [Compound 13, O6-[2,2-bis[[6-[(Z)-non-3-enoxy]-6-oxo-hexanoyl]oxymethyl]-3-[4-(2-pyrrolidin-1-ylethylcarbamoyloxy)decanoyloxy]propyl]O1-[(Z)-non-3-enyl]hexanedioate]
Organ Mean Total Flux Femur (Mouse 12, dose 0.5 mg/kg): 4.8 p/s (×10^6)
Organ Mean Total Flux Heart (Mouse 12, dose 0.5 mg/kg): 1.0 p/s (×10^6)
Organ Mean Total Flux Kidney (Mouse 12, dose 0.5 mg/kg): 4.5 p/s (×10^6)
Organ Mean Total Flux Liver (Mouse 12, dose 0.5 mg/kg): 620.0 p/s (×10^6)
Organ Mean Total Flux Lung (Mouse 12, dose 0.5 mg/kg): 16.7 p/s (×10^6)
Organ Mean Total Flux Muscle (Mouse 12, dose 0.5 mg/kg): 17.0 p/s (×10^6)
Organ Mean Total Flux Pancreas (Mouse 12, dose 0.5 mg/kg): 1.1 p/s (×10^6)
Organ Mean Total Flux Spleen (Mouse 12, dose 0.5 mg/kg): 21.3 p/s (×10^6)

CCCCC/C=C\CCOC(=O)CCCCC(=O)OCC(COC(=O)CCCCC(=O)OCC/C=C\CCCCC)(COC(=O)CCC(CCCCCC)OC(=O)NCCN1CCCC1)COC(=O)CCC(OCCCCCCCC)OCCCCCCCC (stereo not drawn) [Compound 15, O6-[2-(4,4-dioctoxybutanoyloxymethyl)-2-[[6-[(Z)-non-3-enoxy]-6-oxo-hexanoyl]oxymethyl]-3-[4-(2-pyrrolidin-1-ylethylcarbamoyloxy)decanoyloxy]propyl]O1-[(Z)-non-3-enyl]hexanedioate]
Organ Mean Total Flux Femur (Mouse 13, dose 0.5 mg/kg): 1.3 p/s (×10^6)
Organ Mean Total Flux Heart (Mouse 13, dose 0.5 mg/kg): 1.4 p/s (×10^6)
Organ Mean Total Flux Kidney (Mouse 13, dose 0.5 mg/kg): 0.4 p/s (×10^6)
Organ Mean Total Flux Liver (Mouse 13, dose 0.5 mg/kg): 992.3 p/s (×10^6)
Organ Mean Total Flux Lung (Mouse 13, dose 0.5 mg/kg): 3.7 p/s (×10^6)
Organ Mean Total Flux Muscle (Mouse 13, dose 0.5 mg/kg): 1.1 p/s (×10^6)
Organ Mean Total Flux Pancreas (Mouse 13, dose 0.5 mg/kg): 0.1 p/s (×10^6)
Organ Mean Total Flux Spleen (Mouse 13, dose 0.5 mg/kg): 1.6 p/s (×10^6)

CCCCC/C=C\CCOC(=O)CCCCCC(=O)OCC(COC(=O)CCCCCCOC(=O)C(CCCC)CCCCCC)(COC(=O)CCCCCCOC(=O)C(CCCC)CCCCCC)COC(=O)CCC(CCCCCC)OC(=O)NCCN1CCCC1 (stereo not drawn) [Compound 17, O7-[2,2-bis[7-(2-butyloctanoyloxy)heptanoyloxymethyl]-3-[4-(2-pyrrolidin-1-ylethylcarbamoyloxy)decanoyloxy]propyl]O1-[(Z)-non-3-enyl]heptanedioate]
Organ Mean Total Flux Femur (Mouse 2, dose 1.0 mg/kg): 8.0 p/s (×10^6)
Organ Mean Total Flux Heart (Mouse 2, dose 1.0 mg/kg): 13.0 p/s (×10^6)
Organ Mean Total Flux Kidney (Mouse 2, dose 1.0 mg/kg): 7.6 p/s (×10^6)
Organ Mean Total Flux Liver (Mouse 2, dose 1.0 mg/kg): 11856 p/s (×10^6)
Organ Mean Total Flux Lung (Mouse 2, dose 1.0 mg/kg): 59.3 p/s (×10^6)
Organ Mean Total Flux Muscle (Mouse 2, dose 1.0 mg/kg): 30.7 p/s (×10^6)
Organ Mean Total Flux Pancreas (Mouse 2, dose 1.0 mg/kg): 3.0 p/s (×10^6)
Organ Mean Total Flux Spleen (Mouse 2, dose 1.0 mg/kg): 5.5 p/s (×10^6)

CCCC/C=C\CCOC(=O)CCCCCCCC(=O)OCC(COC(=O)CCCCCCCC(=O)OCC/C=C\CCCC)(COC(=O)CCCCCCCC(=O)OCC/C=C\CCCC)COC(=O)CCC(CCCCCC)OC(=O)NCCN1CCCC1 (stereo not drawn) [Compound 21, O9-[2,2-bis[[9-[(Z)-oct-3-enoxy]-9-oxo-nonanoyl]oxymethyl]-3-[4-(2-pyrrolidin-1ylethylcarbamoyloxy)decanoyloxy]propyl]O1-[(Z)-oct-3-enyl]nonanedioate]
Organ Mean Total Flux Femur (Mouse 11, dose 0.5 mg/kg): 2.0 p/s (×10^6)
Organ Mean Total Flux Heart (Mouse 11, dose 0.5 mg/kg): 0.8 p/s (×10^6)
Organ Mean Total Flux Kidney (Mouse 11, dose 0.5 mg/kg): 0.7 p/s (×10^6)
Organ Mean Total Flux Liver (Mouse 11, dose 0.5 mg/kg): 818.7 p/s (×10^6)
Organ Mean Total Flux Lung (Mouse 11, dose 0.5 mg/kg): 6.6 p/s (×10^6)
Organ Mean Total Flux Muscle (Mouse 11, dose 0.5 mg/kg): 4.1 p/s (×10^6)
Organ Mean Total Flux Pancreas (Mouse 11, dose 0.5 mg/kg): 2.8 p/s (×10^6)
Organ Mean Total Flux Spleen (Mouse 11, dose 0.5 mg/kg): 2.0 p/s (×10^6)

CCCCCCCCCOC(=O)CCCCCCC(=O)OCC(COC(=O)CCCCCCC(=O)OCCCCCCCCC)(COC(=O)CCCCCCC(=O)OCCCCCCCCC)COC(=O)CCC(CCCCCC)OC(=O)NCCN1CCCC1 (stereo not drawn) [Compound 23, O8-[2,2-bis[(8-nonoxy-8-oxo-octanoy)oxymethyl]-3-[4-(2-pyrrolidin-1-ylethylcarbamoyloxy)decanoyloxy]propyl]O1-nonyl octanedioate]
Organ Mean Total Flux Femur (Mouse 11, dose 0.5 mg/kg): 1.2 p/s (×10^6)
Organ Mean Total Flux Heart (Mouse 11, dose 0.5 mg/kg): 2.1 p/s (×10^6)
Organ Mean Total Flux Kidney (Mouse 11, dose 0.5 mg/kg): 1.2 p/s (×10^6)
Organ Mean Total Flux Liver (Mouse 11, dose 0.5 mg/kg): 1727 p/s (×10^6)
Organ Mean Total Flux Lung (Mouse 11, dose 0.5 mg/kg): 15.7 p/s (×10^6)
Organ Mean Total Flux Muscle (Mouse 11, dose 0.5 mg/kg): 3.0 p/s (×10^6)
Organ Mean Total Flux Pancreas (Mouse 11, dose 0.5 mg/kg): 0.6 p/s (×10^6)
Organ Mean Total Flux Spleen (Mouse 11, dose 0.5 mg/kg): 1.7 p/s (×10^6)

CCCCCCCCCOC(=O)CCCCCC(=O)OCC(COC(=O)CCCCCC(=O)OCCCCCCCCC)(COC(=O)CCCCCC(=O)OCCCCCCCCC)COC(=O)CCC(CCCCCC)OC(=O)NCCN1CCCC1 (stereo not drawn) [Compound 24, O7-[2,2-bis[(7-nonoxy-7-oxo-heptanoyl)oxymethyl]-3-[4-(2-pyrrolidin-1-ylethylcarbamoyloxy)decanoyloxy]propyl]O1-nonyl heptanedioate]
Organ Mean Total Flux Femur (Mouse 6, dose 0.5 mg/kg): 6.3 p/s (×10^6)
Organ Mean Total Flux Heart (Mouse 6, dose 0.5 mg/kg): 7.1 p/s (×10^6)
Organ Mean Total Flux Kidney (Mouse 6, dose 0.5 mg/kg): 5.7 p/s (×10^6)
Organ Mean Total Flux Liver (Mouse 6, dose 0.5 mg/kg): 4153 p/s (×10^6)
Organ Mean Total Flux Lung (Mouse 6, dose 0.5 mg/kg): 28.8 p/s (×10^6)
Organ Mean Total Flux Muscle (Mouse 6, dose 0.5 mg/kg): 12.1 p/s (×10^6)
Organ Mean Total Flux Pancreas (Mouse 6, dose 0.5 mg/kg): 7.9 p/s (×10^6)
Organ Mean Total Flux Spleen (Mouse 6, dose 0.5 mg/kg): 10.7 p/s (×10^6)

CCCCC/C=C\CCOC(=O)CCCCCCC(=O)OCC(COC(=O)CCCCCCC(=O)OCC/C=C\CCCCC)(COC(=O)CCCCCCC(=O)OCC/C=C\CCCCC)COC(=O)CCC(CCCC)OC(=O)NCCN1CCCC1 (stereo not drawn) [Compound 25, O8-[2,2-bis[[8-[(Z)-non-3-enoxy]-8-oxo-octanoyl]oxymethyl]-3-[4-(2-pyrrolidin-1-ylethylcarbamoyloxy)octanoyloxy]propyl]O1-[(Z)-non-3-enyl]octanedioate]
Organ Mean Total Flux Femur (Mouse 6, dose 0.5 mg/kg): 4.4 p/s (×10^6)
Organ Mean Total Flux Heart (Mouse 6, dose 0.5 mg/kg): 1.4 p/s (×10^6)
Organ Mean Total Flux Kidney (Mouse 6, dose 0.5 mg/kg): 5.9 p/s (×10^6)
Organ Mean Total Flux Liver (Mouse 6, dose 0.5 mg/kg): 911.0 p/s (×10^6)
Organ Mean Total Flux Lung (Mouse 6, dose 0.5 mg/kg): 12.5 p/s (×10^6)
Organ Mean Total Flux Muscle (Mouse 6, dose 0.5 mg/kg): 5.1 p/s (×10^6)
Organ Mean Total Flux Pancreas (Mouse 6, dose 0.5 mg/kg): 14.3 p/s (×10^6)
Organ Mean Total Flux Spleen (Mouse 6, dose 0.5 mg/kg): 80.3 p/s (×10^6)

CCCCC/C=C\CCOC(=O)CCCCCC(=O)OCC(COC(=O)CCCCCC(=O)OCC/C=C\CCCCC)(COC(=O)CCCCCC(=O)OCC/C=C\CCCCC)COC(=O)CCC(CCCC)OC(=O)NCCN1CCCC1 (stereo not drawn) [Compound 26, O7-[2,2-bis[[7-[(Z)-non-3-enoxy]-7-oxo-heptanoyl]oxymethyl]-3-[4-(2-pyrrolidin-1-ylethylcarbamoyloxy)octanoyloxy]propyl]O1-[(Z)-non-3-enyl]heptanedioate]
Organ Mean Total Flux Femur (Mouse 11, dose 0.5 mg/kg): 20.0 p/s (×10^6)
Organ Mean Total Flux Heart (Mouse 11, dose 0.5 mg/kg): 1.2 p/s (×10^6)
Organ Mean Total Flux Kidney (Mouse 11, dose 0.5 mg/kg): 4.4 p/s (×10^6)
Organ Mean Total Flux Liver (Mouse 11, dose 0.5 mg/kg): 481.0 p/s (×10^6)
Organ Mean Total Flux Lung (Mouse 11, dose 0.5 mg/kg): 26.9 p/s (×10^6)
Organ Mean Total Flux Muscle (Mouse 11, dose 0.5 mg/kg): 6.2 p/s (×10^6)
Organ Mean Total Flux Pancreas (Mouse 11, dose 0.5 mg/kg): 8.2 p/s (×10^6)
Organ Mean Total Flux Spleen (Mouse 11, dose 0.5 mg/kg): 152.7 p/s (×10^6)

CCCCC/C=C\CCOC(=O)CCCCCCC(=O)OCC(COC(=O)CCCCCCC(=O)OCC/C=C\CCCCC)(COC(=O)CCCCCCC(=O)OCC/C=C\CCCCC)COC(=O)CCC(CCCCCCCC)OC(=O)NCCN1CCCC1 (stereo not drawn) [Compound 27, O8-[2,2-bis[[8-[(Z)-non-3-enoxy]-8-oxooctanoyl]oxymethyl]-3-[4-(2-pyrrolidin-1-ylethylcarbamoyloxy)dodecanoyloxy]propyl]O1-[(Z)-non-3-enyl]octanedioate]
Organ Mean Total Flux Femur (Mouse 11, dose 0.5 mg/kg): 1.1 p/s (×10^6)
Organ Mean Total Flux Heart (Mouse 11, dose 0.5 mg/kg): 1.7 p/s (×10^6)
Organ Mean Total Flux Kidney (Mouse 11, dose 0.5 mg/kg): 1.2 p/s (×10^6)
Organ Mean Total Flux Liver (Mouse 11, dose 0.5 mg/kg): 1441 p/s (×10^6)
Organ Mean Total Flux Lung (Mouse 11, dose 0.5 mg/kg): 16.4 p/s (×10^6)
Organ Mean Total Flux Muscle (Mouse 11, dose 0.5 mg/kg): 2.0 p/s (×10^6)
Organ Mean Total Flux Pancreas (Mouse 11, dose 0.5 mg/kg): 0.5 p/s (×10^6)
Organ Mean Total Flux Spleen (Mouse 11, dose 0.5 mg/kg): 1.0 p/s (×10^6)
